Measured values from patent publication US12569512B2, “Heparan sulfate (HS) oligosaccharides effect in liver ischemia reperfusion injury” (The University of North Carolina at Chapel Hill, priority 2019, dated 2026).

Key:
[1] = tested on: liver IR injury in rats; conditions: cited from earlier work
[2] = tested on: liver IR injury mouse model; experiment: Liver ischemia-reperfusion (IR) injury mouse model: plasma markers and histology; type: in vivo; conditions: 6 h reperfusion, vs IR; for plasma ALT / hepatic necrotic area in ischemic lobe (H&E): 1 mg/kg SC 30 min before 60 min ischemia; for neutrophil infiltration into ischemic liver (immunohistochemistry): 1 mg/kg SC
Protocol: Liver ischemia-reperfusion (IR) surgery was performed by the Animal Surgery Core Laboratory of the McAllister Heart Institute, University of North Carolina Chapel Hill, NC. The mouse experiments were approved by the UNC Animal Care and Use Committees and complied with National Institutes of Health guidelines. Male C57BL/6J mice, approximately 8 weeks old, were used in the IR surgeries. Mice received a subcutaneous (SC) injection of 1 mg/kg oligosaccharide or the equivalent volume of saline 30 minutes prior to the surgical procedure. For the combination treatment of 12-mer-3+6-mer-AXa, equal concentration of each oligosaccharide was combined into a single solution. Under ketamine/xylazine anesthesia, an abdominal midline incision was made to expose the portal vein. A clamp was placed on the portal vein and bile duct to three major liver lobes to cause a 70% hepatic ischemia. Visible blanching of the ischemic liver lobes confirmed correct placement of the clamp. A temporary stitch closure of the muscle and skin over the clamp was used to prevent dehydration during the ischemia phase. Mice stayed on a heating pad and under anesthesia during the ischemia phase (60 minutes). The clamp was removed after 60 minutes and the ischemia liver lobes regained their red color as blood began to reperfusion the tissue, an indicator of correct reperfusion occurring. The incisions were closed in two layers with 5-0 silk sutures and the mice returned to their active state (no anesthesia used during the reperfusion phase). After 6 hours, the mice were re-anaesthetized, blood was drawn via cardiac puncture and ischemia liver lobes were harvested for histology (fixed in 10% formalin).
Plasma ALT was measured using the ALT Infinity reagent (Thermo Fisher) following the manufacturer's instructions. Plasma TNF-α was measured using Mouse TNF-α DuoSet Kit (R&D Systems) according to the manufacturer's instructions. Plasma HMGB1 levels were determined using HMGB1 ELISA Kit (Tecan US) according to the manufacturer's instructions. Plasma syndecan-1 levels were determined using Mouse Syndecan-1 ELISA (CellSciences) according to manufacturer's instructions. Plasms IL-6 levels were determined using Mouse IL-6 ELISA (R&D Systems).
Ischemia liver tissues were fixed in 10% neutral buffered formalin for 24 hours at room temperature, paraffin-embedded, and sectioned. Liver sections (4 μm) were stained with hematoxylin-eosin (H&E) or immunostained with monoclonal antibodies anti-neutrophil (Abcam, Ab 2557, NIMP-R14) followed by goat anti-rat or goat anti-rabbit biotinylated secondary antibodies (Abcam). Embedding, sectioning and H&E staining were performed at the Animal Histopathology and Laboratory Medicine Core Facility at UNC Chapel Hill. H&E analyses were performed by the Translational Pathology Laboratory Core Facility at UNC Chapel Hill using Aperio ImageScope Software (Leica Biosystems, Concord, Canada). IHC images were captured using an HD camera attached to a bright field microscope (Leica DM 1000 LED, Leica Microsystems Inc., IL, USA) and were processed using ImageJ. For neutrophil quantitation, five 100× images were randomly selected for each sample and the average neutrophils/field were reported.
1 mg/kg of 18-mer or equal volume of sterile saline was administered by subcutaneous injection 30 minutes prior to start of the ischemia phase. Ischemia to 70% of the liver was caused by clamping the portal vein and bile duct for 60 minutes. After the clamp was removed, the reperfusion phase last 6 hours before the animals were sacrificed for collection of liver tissue and blood. For surgical controls, a sham operation was performed such that the animal experienced the same anesthesia, abdominal midline incision, and suturing as the IR mice (FIG. 11A).

[3] = tested on: T1, FXa (Homo sapiens); experiment: Ex vivo plasma FXa activity of mice after liver IR; type: in vivo, mouse; conditions: 1 mg/kg SC 30 min before ischemia; plasma after 6 h reperfusion; vs IR
T1 construct: purchased Enzyme Research Laboratories (FXa); Cutter Biologics (antithrombin)
Protocol: (§1) Assays were based on a previously published method. Briefly, human FXa (Enzyme Research Laboratories) was diluted to 50 U ml^−1 with PBS. The chromogenic substrate S-2765 (Diapharma) was diluted to 1 mg ml^−1 in water. For in vitro studies, fondaparinux (available under the trade name ARIXTRA) and 12-mer oligosaccharides were dissolved in PBS at various concentrations (0-131 nM). 16 μl of sample was incubated with 60 μl of […] antithrombin (Cutter Biologics) for 2 min at room temperature. Next, 100 μl of FXa was added and incubated for 4 min at room temperature. 30 μl of S-2765 substrate was added and the absorbance of the reaction mixture was measured at 405 nm continuously for 5 min. PBS serves as a control sample. The maximum slope for each sample was convert to percent FXa activity by dividing by the maximum slope for the control sample.
For ex vivo studies, mouse plasma collected after the 6 hour reperfusion period and assayed the same as described above.
Liver ischemia-reperfusion (IR) surgery was performed by the Animal Surgery Core Laboratory of the McAllister Heart Institute, University of North Carolina Chapel Hill, NC. The mouse experiments were approved by the UNC Animal Care and Use Committees and complied with National Institutes of Health guidelines. Male C57BL/6J mice, approximately 8 weeks old, were used in the IR surgeries. […]

[4] = tested on: T2, human FXa (Homo sapiens); conditions: as previously demonstrated [15]; cited from earlier work
T2 construct: purchased Enzyme Research Laboratories (FXa); Cutter Biologics (antithrombin)

[5] = target: T3, HMGB1 (Mus musculus, UniProt P63158); experiment: Affinity purification (pulldown) of HMGB1 from liver lysate with biotinylated oligosaccharides, Western analysis; type: binding; conditions: biotinylated oligosaccharide 0.1 mM, Western blot
T3 construct: used to pull down endogenous HMGB1 from liver lysate; from tissue; host or cells: liver lysate
T3 sequence (P63158 1-215): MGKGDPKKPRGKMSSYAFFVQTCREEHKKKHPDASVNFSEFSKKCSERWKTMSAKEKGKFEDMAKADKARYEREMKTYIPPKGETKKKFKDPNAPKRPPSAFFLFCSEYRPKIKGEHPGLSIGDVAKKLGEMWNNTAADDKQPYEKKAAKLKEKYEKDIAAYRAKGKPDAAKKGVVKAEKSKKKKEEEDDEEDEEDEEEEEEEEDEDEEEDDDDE
Protocol: The oligosaccharides were converted to biotinylated versions using the same method as described in PCT International Patent Application Serial No. PCT/US2018/059152. Briefly, 12-mers and 6-mer-AXa with a pNP tag (5-10 mg) and 0.5 mg Pd/C were dissolved in 20 mM NaOAc, pH 5.0 in a total volume of 4 ml. Reaction mixture was vacuumed and refilled with H2 three times. The reaction was then incubated at room temperature for 4 h. After that, it was filtered to remove charcoal. The filtered solution was adjusted to pH 8.5 using 500 mM Na2HPO4. Succinimidyl 6-azidohexanoate (20 molar equivalent of starting oligosaccharides) was added and incubated at 37° C. overnight. Reaction was purified by DEAE-HPLC column to generate azido tagged oligosaccharides. PBS (pH7.4) buffer was bubbled with N2 for 5 min to prepare the sample solution of 0.1 M CuSO4, 0.1 M Tris(3-hydroxypropyl-triazolylmethyl)amine (THPTA)(Sigma), 0.15 M sodium ascorbate, 0.01 M azido tagged oligosaccharides and 0.02 M biotin-PEG4-alkyne (Sigma). The mixture of […] and 80 μl CuSO4 was vortexed, then 160 μl sodium ascorbate, 200 μl azido tagged oligomers and 200 μl biotin-PEG4-alkyne was added and bubbled with N2 for 2 min, then incubated at 37° C. overnight. The reaction was purified by DEAE-HPLC column to generate biotinylated products. The biotinylated 12-mers and 6-mer-AXa products were confirmed by ESI-MS.
Briefly, liver lysate was prepared by snap freezing tissue in liquid nitrogen at the time of sacrifice. The tissue was mechanically homogenized in buffer containing 200 mM MES, 500 mM phosphate, and 1 mM EDTA at pH 6 followed by three rounds of freeze thawing. The lysed sample were centrifuged at 10,000× g for 15 min at 4° C. Biotinylated HS oligosaccharides (final concentration 0.1 mM) were mixed with 20 μl of fresh liver lysate (˜0.6 mg) in 100 mM NaCl 20 mM HEPES pH 7.2 and incubated overnight at 4° C. The purification and biotinylated HS bound complex where achieved using avidin-Sepharose and increasing concentration of NaCl washes. […]

[6] = tested on: MPO; experiment: MPO activity in ischemic liver lysate after liver IR; type: in vivo, mouse; conditions: 1 mg/kg SC, 6 h reperfusion
Protocol: Liver ischemia-reperfusion (IR) surgery was performed by the Animal Surgery Core Laboratory of the McAllister Heart Institute, University of North Carolina Chapel Hill, NC. The mouse experiments were approved by the UNC Animal Care and Use Committees and complied with National Institutes of Health guidelines. Male C57BL/6J mice, approximately 8 weeks old, were used in the IR surgeries. Mice received a subcutaneous (SC) injection of 1 mg/kg oligosaccharide or the equivalent volume of saline 30 minutes prior to the surgical procedure. For the combination treatment of 12-mer-3+6-mer-AXa, equal concentration of each oligosaccharide was combined into a single solution. Under ketamine/xylazine anesthesia, an abdominal midline incision was made to expose the portal vein. […]
Ischemia liver lobe was mechanically homogenized in 50 mM CTAB 50 mM potassium phosphate pH 6 at a ratio of 100 μl buffer per 10 mg tissue. […] Total protein concentration was measured by Bradford assay. 10 μl of liver lysate was incubated with 80 μl of 0.75 mM H2O2 and 110 μl of TMB (TMB liquid reagent, ready-to-use, Sigma) for 10 minutes at 37° C. with gentle agitation. The reaction was stopped by addition of 2.5 M H2SO4 and read at 450 nm. Activity (U/g protein) was calculated as absorbance of sample minus the absorbance of the blank divided by incubation time. […]

[7] = tested on: rat model; conditions: elevated doses; cited from earlier work
[8] = kidney IR model; cited from earlier work
[9] = target: T2, human FXa (Homo sapiens); experiment: In vitro anti-FXa activity of oligosaccharides (chromogenic, with antithrombin); type: biochemical; conditions: for anti-FXa activity (anticoagulant activity): 0-131 nM
Protocol: as §1

T2 sequence (P01008 33-464): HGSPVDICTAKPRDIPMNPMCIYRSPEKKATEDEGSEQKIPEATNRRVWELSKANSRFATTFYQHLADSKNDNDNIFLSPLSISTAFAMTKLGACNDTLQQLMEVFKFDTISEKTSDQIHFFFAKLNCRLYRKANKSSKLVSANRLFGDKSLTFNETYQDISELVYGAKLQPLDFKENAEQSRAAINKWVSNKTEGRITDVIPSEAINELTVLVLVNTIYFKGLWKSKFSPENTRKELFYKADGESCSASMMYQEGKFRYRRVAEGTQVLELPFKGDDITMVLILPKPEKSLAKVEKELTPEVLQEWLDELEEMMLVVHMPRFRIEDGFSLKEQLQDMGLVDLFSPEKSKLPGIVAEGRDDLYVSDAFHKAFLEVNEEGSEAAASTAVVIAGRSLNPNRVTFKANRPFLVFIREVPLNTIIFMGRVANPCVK
T1 sequence (P01008 33-464): as above

CC(=N)N1CC[C@H](Oc2ccc([C@H](Cc3ccc4ccc(C(=N)N)cc4c3)C(=O)O)cc2)C1 [DX9065a]
liver IR injury [1]: no protection

GlcNS6S-GlcA-GlcNS6S3S-IdoA2S-GlcNS6S-GlcA-pNP [6-mer-AXa]
plasma ALT [2]: no statistical difference in the concentration of ALT | plasma FXa activity [3]: Anticoagulant levels are similar between both treatment groups | anticoagulant activity through inhibition of FXa [4]: has anticoagulant activity through inhibition of FXa | HMGB1 pulldown from liver lysate [5]: does not pull down HMGB1

GlcNS6S-GlcA-GlcNS6S3S-IdoA2S-GlcNS6S-IdoA2S-GlcNS6S-IdoA2S-GlcNS6S-IdoA2S-GlcNS6S-GlcA-pNP [12-mer-1]
decrease of MPO activity compared to the IR group [6]: 60% | toxicity [7]: no toxicity | hepatic necrotic area in ischemic lobe (H&E) [2]: decreased hepatic necrosis | plasma ALT [2]: significantly decreased plasma ALT | neutrophil infiltration into ischemic liver (immunohistochemistry) [2]: decreased neutrophil infiltration | renal clearance [8]: renal clearance impairment of 12-mer-1 was demonstrated | plasma FXa activity [3]: significantly decreased FXa activity | IC50 ([9]; with antithrombin, substrate S-2765): 63 nM | HMGB1 pulldown from liver lysate [5]: successfully pull down HMGB1

GlcNS6S-GlcA-GlcNS6S-GlcA-GlcNS6S-GlcA-GlcNS6S-GlcA-GlcNS6S-GlcA-GlcNS6S-GlcA-pNP [12-mer-4]
anti-FXa activity (anticoagulant activity) [9]: did not display anti-FXa activity

GlcNS6S-GlcA-GlcNS6S-IdoA2S-GlcNS6S-IdoA2S-GlcNS6S-IdoA2S-GlcNS6S-IdoA2S-GlcNS6S-GlcA-pNP [12-mer-3]
MPO activity [6]: 96.00 U/g protein | hepatic necrotic area in ischemic lobe (H&E) [2]: not 12-mer-3 decreased ALT and necrosis | plasma ALT [2]: not 12-mer-3 decreased ALT | neutrophil infiltration into ischemic liver (immunohistochemistry) [2]: did not | anti-FXa activity (anticoagulant activity) [9]: did not display anti-FXa activity | HMGB1 pulldown from liver lysate [5]: successfully pull down HMGB1

GlcNS-GlcA-GlcNS-IdoA2S-GlcNS-IdoA2S-GlcNS-IdoA2S-GlcNS-IdoA2S-GlcNS-GlcA-pNP [12-mer-2]
anti-FXa activity (anticoagulant activity) [9]: did not display anti-FXa activity
